Test results: patent US20230322767A1, “ARYL SUBSTITUTED PYRROLO-PYRIDINONES AND THERAPEUTIC USES THEREOF” (Bayer Aktiengesellschaft, priority 2020, published 2023)
Read-outs that look alike come from different tables or passages of the source.

How the values were obtained:
Type in all cases: biochemical
[1] = target: wild-type Epidermal Growth Factor Receptor (EGFR) (Homo sapiens (Human), UniProt P00533); test: WT-EGFR Kinase Assay (TR-FRET, 2 mM ATP)
Summary of the method: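 GST-tagged human EGFR (R669–A1210, Sf9-expressed) preincubated 15 min at 22° C with compound in pH 7.0 Hepes/MgCl2 buffer, then reacted at 2 mM ATP with a biotinylated peptide substrate. Phosphorylation detected by TR-FRET (streptavidin-XL665, Tb-cryptate anti-phosphotyrosine) as the 665/620 nm emission ratio.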

CSNK1D = CSNK1D (Homo sapiens (Human), UniProt P48730); test: CSNK1D Assay (ADP-Glo, 1 μM ATP); details: median, read-out: CSNK1D IC50 [mol/l] (median)
Summary of the method: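 Enzyme preincubated with compound 15 min at 22° C in 50 mM HEPES pH 7.5 buffer with 10 mM MgCl2, 1 mM DTT; kinase reaction run at 1 μM ATP with biotinylated peptide substrate. ADP formed was detected by ADP-Glo luminescence as the measure of activity.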

CSNK1A1 = CSNK1A1 (Homo sapiens (Human), UniProt P48729); test: CSNK1A1 Assay 2 (ADP-Glo, 1 μM ATP); details: median, read-out: CSNK1A1 Assay 2 IC50 [mol/l] (median)
Summary of the method: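 Enzyme (~0.0375 ng/μL) preincubated 15 min at 22° C with compound in HEPES pH 7.5 buffer, then reacted with 1 μM ATP and biotin-Ahx-KRRRAL-pS-VASLPGL peptide. ADP product measured by ADP-Glo luminescence after 1 h ATP depletion and 1 h detection at 22° C.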

[2] = EGFR Wildtyp 2 mM ATP IC50 [mol/l] (median), median or individual measurements
[3] = read-out: EGFR Wildtyp 2 mM ATP IC50 [mol/l] (median), median or individual measurements

CSNK1A1, sequence (P48729 whole entry): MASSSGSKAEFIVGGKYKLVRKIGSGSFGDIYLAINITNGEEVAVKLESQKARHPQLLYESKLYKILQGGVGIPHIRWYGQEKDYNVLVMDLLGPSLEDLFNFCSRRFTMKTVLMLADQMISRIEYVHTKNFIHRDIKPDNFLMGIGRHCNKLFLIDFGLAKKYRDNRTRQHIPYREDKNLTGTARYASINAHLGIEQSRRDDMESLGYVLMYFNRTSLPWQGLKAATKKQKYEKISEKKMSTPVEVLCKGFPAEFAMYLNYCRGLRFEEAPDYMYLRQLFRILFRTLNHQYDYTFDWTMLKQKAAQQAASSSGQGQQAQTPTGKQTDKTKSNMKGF
wild-type Epidermal Growth Factor Receptor (EGFR), sequence (P00533 669-1210): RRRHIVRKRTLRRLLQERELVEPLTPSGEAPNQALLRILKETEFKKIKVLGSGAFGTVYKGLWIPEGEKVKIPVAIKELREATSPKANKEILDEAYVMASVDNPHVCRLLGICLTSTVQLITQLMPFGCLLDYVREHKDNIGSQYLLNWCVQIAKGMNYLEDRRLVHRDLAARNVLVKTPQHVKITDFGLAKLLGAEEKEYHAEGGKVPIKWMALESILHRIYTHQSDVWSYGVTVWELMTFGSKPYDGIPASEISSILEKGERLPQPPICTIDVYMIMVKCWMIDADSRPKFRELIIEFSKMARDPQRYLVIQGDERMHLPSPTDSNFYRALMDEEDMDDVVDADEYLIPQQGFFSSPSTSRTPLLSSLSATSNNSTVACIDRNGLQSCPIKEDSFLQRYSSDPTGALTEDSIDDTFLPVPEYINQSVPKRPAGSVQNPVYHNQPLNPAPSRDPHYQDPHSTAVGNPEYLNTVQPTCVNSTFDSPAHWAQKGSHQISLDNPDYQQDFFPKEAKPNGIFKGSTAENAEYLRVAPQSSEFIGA
CSNK1D, sequence (P48730 whole entry): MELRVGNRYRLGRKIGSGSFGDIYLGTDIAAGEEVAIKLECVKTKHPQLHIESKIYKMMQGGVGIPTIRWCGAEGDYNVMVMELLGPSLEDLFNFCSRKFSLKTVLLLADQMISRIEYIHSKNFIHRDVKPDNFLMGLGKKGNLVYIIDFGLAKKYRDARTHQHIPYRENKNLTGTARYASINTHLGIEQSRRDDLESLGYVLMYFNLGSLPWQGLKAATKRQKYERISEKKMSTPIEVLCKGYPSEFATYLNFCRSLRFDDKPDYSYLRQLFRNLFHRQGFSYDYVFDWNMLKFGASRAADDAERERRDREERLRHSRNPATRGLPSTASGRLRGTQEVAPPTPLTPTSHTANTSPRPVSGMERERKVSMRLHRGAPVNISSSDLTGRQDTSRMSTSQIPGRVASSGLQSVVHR

CN1CC(C)(C)c2[nH]c(-c3ccnc(NC(=O)C(CC(F)F)c4ccc(F)cc4)c3)c(-c3ccccc3)c2C1=O (single isomer, unassigned; (-)) [Example 151, (−)-4,4-difluoro-2-(4-fluorophenyl)-N-[4-(5,7,7-trimethyl-4-oxo-3-phenyl-4,5,6,7-tetrahydro-1H-pyrrolo[3,2-c]pyridin-2-yl)pyridin-2-yl]butanamide]
IC50 [1, 2]: > 20000 nM
IC50 (CSNK1D): 19 nM
IC50 (CSNK1A1): 17 nM

CN1CCc2[nH]c(-c3ccnc(NC(=O)Cc4ccc(F)cc4)c3)c(-c3ccccc3)c2C1=O [Example 1, 2-(4-fluorophenyl)-N-[4-(5-methyl-4-oxo-3-phenyl-4,5,6,7-tetrahydro-1H-pyrrolo[3,2-c]pyridin-2-yl)pyridin-2-yl]acetamide]
IC50 [1, 3]: > 20000 nM
IC50 (CSNK1D): 3.7 nM
IC50 (CSNK1A1): 1.3 nM

CN1CC(CC2CC2)c2[nH]c(-c3ccnc(NC(=O)C(CC(F)F)c4ccc(F)cc4)c3)c(-c3ccc(F)cc3)c2C1=O (stereo not shown) [Example 64, N-{4-[7-(cyclopropylmethyl)-3-(4-fluorophenyl)-5-methyl-4-oxo-4,5,6,7-tetrahydro-1H-pyrrolo[3,2-c]pyridin-2-yl]pyridin-2-yl}-4,4-difluoro-2-(4-fluorophenyl)butanamide]
IC50 [1, 3]: > 20000 nM
IC50 (CSNK1D): 4.8 nM
IC50 (CSNK1A1): 8.5 nM

O=C(Cc1ccc(F)cc1)Nc1cc(-c2[nH]c3c(c2-c2ccccc2)C(=O)NCC3)ccn1 [Example 72, 2-(4-fluorophenyl)-N-[4-(4-oxo-3-phenyl-4,5,6,7-tetrahydro-1H-pyrrolo[3,2-c]pyridin-2-yl)pyridin-2-yl]acetamide]
IC50 [1, 3]: > 20000 nM
IC50 (CSNK1D): 1.3 nM
IC50 (CSNK1A1): 0.66 nM

O=C(Cc1ccc(F)cc1)Nc1cc(-c2[nH]c3cc[nH]c(=O)c3c2-c2ccccc2)ccn1 [Example 73, 2-(4-fluorophenyl)-N-[4-(4-oxo-3-phenyl-4,5-dihydro-1H-pyrrolo[3,2-c]pyridin-2-yl)pyridin-2-yl]acetamide]
IC50 [1, 3]: > 20000 nM
IC50 (CSNK1D): 5.4 nM
IC50 (CSNK1A1): 1.9 nM

Cn1cc(Cl)c2[nH]c(-c3ccnc(NC(=O)Cc4ccc(F)cc4)c3)c(-c3ccccc3)c2c1=O [Example 79, N-[4-(7-chloro-5-methyl-4-oxo-3-phenyl-4,5-dihydro-1H-pyrrolo[3,2-c]pyridin-2-yl)pyridin-2-yl]-2-(4-fluorophenyl)acetamide]
IC50 [1, 3]: > 20000 nM
IC50 (CSNK1D): 4.8 nM
IC50 (CSNK1A1): 5.1 nM

CC1(C)Cc2[nH]c(-c3ccnc(NC(=O)Cc4ccc(F)cc4)c3)c(-c3ccccc3)c2C(=O)N1 [Example 82, N-[4-(6,6-dimethyl-4-oxo-3-phenyl-4,5,6,7-tetrahydro-1H-pyrrolo[3,2-c]pyridin-2-yl)pyridin-2-yl]-2-(4-fluorophenyl)acetamide]
IC50 [1, 3]: > 20000 nM
IC50 (CSNK1D): 2.4 nM
IC50 (CSNK1A1): 1.3 nM

CC1(C)Cc2[nH]c(-c3ccnc(NC(=O)Cc4ccc(F)cc4)c3)c(-c3ccc(F)cc3)c2C(=O)N1 [Example 83, 2-(4-fluorophenyl)-N-{4-[3-(4-fluorophenyl)-6,6-dimethyl-4-oxo-4,5,6,7-tetrahydro-1H-pyrrolo[3,2-c]pyridin-2-yl]pyridin-2-yl}acetamide]
IC50 [1, 3]: > 20000 nM
IC50 (CSNK1D): 3.5 nM
IC50 (CSNK1A1): 1.9 nM

CC1(C)Cc2[nH]c(-c3ccnc(NC(=O)Cc4ccc(F)cc4)c3)c(-c3ccccc3F)c2C(=O)N1 [Example 84, 2-(4-fluorophenyl)-N-{4-[3-(2-fluorophenyl)-6,6-dimethyl-4-oxo-4,5,6,7-tetrahydro-1H-pyrrolo[3,2-c]pyridin-2-yl]pyridin-2-yl}acetamide]
IC50 [1, 2]: > 20000 nM
IC50 ([1]; read-out: EGFR Wildtyp 2 mM ATP IC50 [mol/l] (median), median or individual measurements, listed as 084): 16000 nM
IC50 (CSNK1D): 4.8 nM
IC50 (CSNK1A1): 3.4 nM

CC1(C)Cc2[nH]c(-c3ccnc(NC(=O)Cc4ccc(F)cc4)c3)c(-c3cccc(F)c3)c2C(=O)N1 [Example 85, 2-(4-fluorophenyl)-N-{4-[3-(3-fluorophenyl)-6,6-dimethyl-4-oxo-4,5,6,7-tetrahydro-1H-pyrrolo[3,2-c]pyridin-2-yl]pyridin-2-yl}acetamide]
IC50 [1, 3]: > 5710 nM
IC50 (CSNK1D): 3.9 nM
IC50 (CSNK1A1): 1.9 nM

Cc1cccc(-c2c(-c3ccnc(NC(=O)Cc4ccc(F)cc4)c3)[nH]c3c2C(=O)NC(C)(C)C3)c1 [Example 86, N-{4-[6,6-dimethyl-3-(3-methylphenyl)-4-oxo-4,5,6,7-tetrahydro-1H-pyrrolo[3,2-c]pyridin-2-yl]pyridin-2-yl}-2-(4-fluorophenyl)acetamide]
IC50 [1, 3]: > 20000 nM
IC50 (CSNK1D): 5.2 nM
IC50 (CSNK1A1): 4 nM

CC(C(=O)Nc1cc(-c2[nH]c3c(c2-c2ccccc2F)C(=O)NC(C)(C)C3)ccn1)c1ccc(F)cc1 (stereo not shown) [Example 87, 2-(4-fluorophenyl)-N-{4-[3-(2-fluorophenyl)-6,6-dimethyl-4-oxo-4,5,6,7-tetrahydro-1H-pyrrolo[3,2-c]pyridin-2-yl]pyridin-2-yl}propanamide]
IC50 [1, 3]: > 20000 nM
IC50 (CSNK1D): 13 nM
IC50 (CSNK1A1): 12 nM

CC1(C)Cc2[nH]c(-c3ccnc(NC(=O)Cc4ccc(F)cc4)c3)c(-c3ccc(Cl)cc3)c2C(=O)N1 [Example 90, N-{4-[3-(4-chlorophenyl)-6,6-dimethyl-4-oxo-4,5,6,7-tetrahydro-1H-pyrrolo[3,2-c]pyridin-2-yl]pyridin-2-yl}-2-(4-fluorophenyl)acetamide]
IC50 [1, 3]: > 20000 nM
IC50 (CSNK1D): 4.1 nM
IC50 (CSNK1A1): 3.2 nM

Cc1ccc(-c2c(-c3ccnc(NC(=O)Cc4ccc(F)cc4)c3)[nH]c3c2C(=O)NC(C)(C)C3)cc1 [Example 92, N-{4-[6,6-dimethyl-3-(4-methylphenyl)-4-oxo-4,5,6,7-tetrahydro-1H-pyrrolo[3,2-c]pyridin-2-yl]pyridin-2-yl}-2-(4-fluorophenyl)acetamide]
IC50 [1, 3]: > 20000 nM
IC50 (CSNK1D): 5.7 nM
IC50 (CSNK1A1): 4.5 nM

CC1(C)Cc2[nH]c(-c3ccnc(NC(=O)Cc4ccc(F)cc4)c3)c(-c3cccnc3)c2C(=O)N1 [Example 93, N-{4-[6,6-dimethyl-4-oxo-3-(pyridin-3-yl)-4,5,6,7-tetrahydro-1H-pyrrolo[3,2-c]pyridin-2-yl]pyridin-2-yl}-2-(4-fluorophenyl)acetamide]
IC50 [1, 3]: > 20000 nM
IC50 (CSNK1D): 9.3 nM
IC50 (CSNK1A1): 4 nM

COCCNC(=O)c1ccc(CC(=O)Nc2cc(-c3[nH]c4c(c3-c3ccc(F)cc3)C(=O)N(C)CC4)ccn2)cc1 [Example 140, 4-[2-({4-[3-(4-fluorophenyl)-5-methyl-4-oxo-4,5,6,7-tetrahydro-1H-pyrrolo[3,2-c]pyridin-2-yl]pyridin-2-yl}amino)-2-oxoethyl]-N-(2-methoxyethyl)benzamide]
IC50 [1, 3]: > 20000 nM
IC50 (CSNK1D): 1.8 nM
IC50 (CSNK1A1): 1.6 nM

COCCN(C)C(=O)c1ccc(CC(=O)Nc2cc(-c3[nH]c4c(c3-c3ccc(F)cc3)C(=O)N(C)CC4)ccn2)cc1 [Example 141, 4-[2-({4-[3-(4-fluorophenyl)-5-methyl-4-oxo-4,5,6,7-tetrahydro-1H-pyrrolo[3,2-c]pyridin-2-yl]pyridin-2-yl}amino)-2-oxoethyl]-N-(2-methoxyethyl)-N-methylbenzamide]
IC50 [1, 3]: > 20000 nM
IC50 (CSNK1D): 2.7 nM
IC50 (CSNK1A1): 3.6 nM

COCCNC(=O)c1ccc(CC(=O)Nc2cc(-c3[nH]c4ccn(C)c(=O)c4c3-c3ccc(F)cc3)ccn2)cc1 [Example 142, 4-[2-({4-[3-(4-fluorophenyl)-5-methyl-4-oxo-4,5-dihydro-1H-pyrrolo[3,2-c]pyridin-2-yl]pyridin-2-yl}amino)-2-oxoethyl]-N-(2-methoxyethyl)benzamide]
IC50 [1, 3]: > 20000 nM
IC50 (CSNK1D): 3.8 nM
IC50 (CSNK1A1): 2.7 nM

COCCN(C)C(=O)c1ccc(CC(=O)Nc2cc(-c3[nH]c4ccn(C)c(=O)c4c3-c3ccc(F)cc3)ccn2)cc1 [Example 143, 4-[2-({4-[3-(4-fluorophenyl)-5-methyl-4-oxo-4,5-dihydro-1H-pyrrolo[3,2-c]pyridin-2-yl]pyridin-2-yl}amino)-2-oxoethyl]-N-(2-methoxyethyl)-N-methylbenzamide]
IC50 [1, 3]: > 20000 nM
IC50 (CSNK1D): 2.7 nM
IC50 (CSNK1A1): 4 nM

CN1CCc2[nH]c(-c3ccnc(NC(=O)Cc4ccc(C(=O)N5CCNCC5)cc4)c3)c(-c3ccc(F)cc3)c2C1=O [Example 144, N-{4-[3-(4-fluorophenyl)-5-methyl-4-oxo-4,5,6,7-tetrahydro-1H-pyrrolo[3,2-c]pyridin-2-yl]pyridin-2-yl}-2-[4-(piperazine-1-carbonyl)phenyl]acetamide]
IC50 [1, 3]: 3620 nM
IC50 (CSNK1D): 3 nM
IC50 (CSNK1A1): 2 nM

Cn1ccc2[nH]c(-c3ccnc(NC(=O)Cc4ccc(F)cc4)c3)c(-c3ccccn3)c2c1=O [Example 146, 2-(4-fluorophenyl)-N-{4-[5-methyl-4-oxo-3-(pyridin-2-yl)-4,5-dihydro-1H-pyrrolo[3,2-c]pyridin-2-yl]pyridin-2-yl}acetamide]
IC50 [1, 3]: > 20000 nM
IC50 (CSNK1D): 4.4 nM
IC50 (CSNK1A1): 3.3 nM

CC(C(=O)Nc1cc(-c2[nH]c3c(c2-c2ccccc2)C(=O)N(C)CC3)ccn1)c1ccncc1 (stereo not shown) [Example 154, N-[4-(5-methyl-4-oxo-3-phenyl-4,5,6,7-tetrahydro-1H-pyrrolo[3,2-c]pyridin-2-yl)pyridin-2-yl]-2-(pyridin-4-yl)propanamide]
IC50 [1, 2]: > 20000 nM
IC50 (CSNK1D): 6 nM
IC50 (CSNK1A1): 5.1 nM
